In patent publication US20230406883A1, “COMPOUNDS AND THEIR USE IN TREATMENT OF TACHYKININ RECEPTOR MEDIATED DISORDERS” (Embark Biotech ApS, priority 2020, published 2023):
pEC50: −log10 of the molar value. “And” between values parts separate entries of the source, which are not always exact repeats. Equal entries are not always repeated. Numbered stars: 1 amine (or outer) side, 2 acyl side, 3 side chain; on linkers, the order of the positions; unused ones are H or OH. Square brackets hold non-standard residues; d marks the D form. Peptide text beside a SMILES is read from it. * marks the point of attachment. C18 diacid = O=C(O)CCCCCCCCCCCCCCCCC(=O)*; C16 diacid = O=C(O)CCCCCCCCCCCCCCC(=O)*; γGlu = O=C(O)[C@H](CCC(=O)[*:2])N[*:1]; mTyr = N[C@@H](Cc1cccc(O)c1)C(=O)O; NMeL = CN[C@@H](CC(C)C)C(=O)O; hSer = N[C@@H](CCO)C(=O)O; Nle = CCCC[C@H](N)C(=O)O; AEEA = NCCOCCOCC(=O)O; Aib = CC(C)(N)C(=O)O

What was measured:
Assay in all cases: IP3 assay (inositol trisphosphate, 3H-myoinositol) in transiently transfected COS-7 cells
Type in all cases: cell-based
[1] = target: T1, hNK1R (Homo sapiens, UniProt P25103); conditions: COS-7 cells; for pEC50: 0.2% ovalbumin buffer; for hNK1R, IP3 Efficacy: figure legends: percent of 10^-6 M NKA
T1 construct: host or cells: COS-7
Procedure: (§1) Agonist-induced G-protein coupled receptor (GPCR) activation was measured by an Inositol-1,4,5-Trisphosphate [^3H] Radioreceptor Assay (IPs Assay). Assays were carried out using COS-7 cells transiently transfected by calcium phosphate transfection with a vector pcDNA3.1(+) encoding one of the indicated receptors (Genscript). Briefly, DNA mixed with CaCl2 (2 M) and TE-buffer (10 mM Tris-HCl, 1 mM EDTA, pH 7.5) was dropwise added to 2×HBS (50 mM HEPES, 280 mM NaCl, 1.5 mM NaH2PO4, pH 7.2) and incubated for 45 min at room temperature (22±2° C.). The mixture and a final concentration of 100 μM Chloroquine were added to the cells and left to incubate for 5 hours at 37° C. under standard cell culture conditions (10% CO2) before changing medium to fresh medium containing 5 μl/mL Myo-[2-^3H(N)]-inositol (labelling medium).
(§2) The IP3 assay takes advantage of the tachykinin receptors' ability to induce production of the inositol trisphosphate (IP3) second messenger upon agonist (ligand) binding on receptor expressing cells following an initial ^3H-inositol labelling period. In effect this means that production of the second messenger IP3 as a measure of receptor activity can be assessed by counting ^3H-activity.
(§3) Assay solutions used: Wash buffer (HBSS), Assay buffer (HBSS+10 mM LiCl and 0,2% w/v ovalbumin), Lysis buffer (10 mM formic acid), and SPA YSI beads (12.5 mg/ml in H2O). The assay was performed the day after transfection. Briefly, labelling medium was aspirated, and plates were washed ×1 in wash buffer before adding 100 μl assay buffer, pre-incubated for 30 min followed by 120 min incubation with agonist, both at 37° C. After incubation, plates were immediately placed on ice and the incubation medium was aspirated and 40 μl of 10 mM formic acid per well was added. Plates were incubated for at least 30 min on ice. 60 μl (1 mg/well) SPA YSI beads/well was pipetted into a solid white 96 wells plate and 35 μl of the lysis solution was transferred to the plate before covering plates with seal cover and shaking for 10 min. (max speed). Centrifuge plates and leave for 8 hours at room temperature before counting the plates in a MicroBeta plate counter (Perkin Elmer).

[2] = target: T2, hNK2R (Homo sapiens, UniProt P21452); conditions: for pEC50 / hNK2R, IP3 Efficacy: COS-7 cells; for pEC50: 0.2% ovalbumin buffer; for hNK2R, IP3 Efficacy: figure legends: percent of 10^-6 M NKA
T2 construct: host or cells: COS-7
T2 sequence (P21452 1-398): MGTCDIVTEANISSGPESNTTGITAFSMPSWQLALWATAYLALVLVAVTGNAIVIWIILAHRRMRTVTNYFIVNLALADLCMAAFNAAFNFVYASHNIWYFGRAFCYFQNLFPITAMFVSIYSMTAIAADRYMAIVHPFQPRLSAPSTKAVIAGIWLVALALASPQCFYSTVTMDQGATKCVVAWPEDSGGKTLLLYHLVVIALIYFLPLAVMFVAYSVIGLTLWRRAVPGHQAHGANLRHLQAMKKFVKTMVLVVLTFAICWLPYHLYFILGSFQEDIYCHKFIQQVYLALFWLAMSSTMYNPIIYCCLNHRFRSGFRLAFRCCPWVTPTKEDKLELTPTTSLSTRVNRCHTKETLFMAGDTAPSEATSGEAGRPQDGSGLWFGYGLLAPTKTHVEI
Procedure: as §1, §2, §3

[3] = target: T3, hNK3R (Homo sapiens, UniProt P29371); conditions: COS-7 cells; for hNK3, IP3 Efficacy: figure legends: percent of 10^-6 M NKA; for pEC50: 0.2% ovalbumin buffer, read-out: hNK3, IP3 EC50
T3 construct: host or cells: COS-7
T3 sequence (P29371 1-465): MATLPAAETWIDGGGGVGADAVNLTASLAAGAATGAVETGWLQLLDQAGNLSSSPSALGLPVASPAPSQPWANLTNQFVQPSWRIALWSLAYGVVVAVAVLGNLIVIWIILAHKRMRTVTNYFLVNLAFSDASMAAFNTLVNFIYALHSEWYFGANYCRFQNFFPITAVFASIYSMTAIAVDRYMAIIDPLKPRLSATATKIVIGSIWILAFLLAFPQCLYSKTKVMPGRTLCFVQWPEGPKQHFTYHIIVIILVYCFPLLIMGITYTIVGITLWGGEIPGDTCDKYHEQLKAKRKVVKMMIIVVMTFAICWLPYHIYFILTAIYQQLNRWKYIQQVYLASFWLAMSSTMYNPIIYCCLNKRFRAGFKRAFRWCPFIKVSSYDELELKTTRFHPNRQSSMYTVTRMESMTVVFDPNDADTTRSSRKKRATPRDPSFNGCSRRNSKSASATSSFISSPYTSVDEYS
Procedure: as §1, §2, §3

T1 sequence (P25103 whole entry): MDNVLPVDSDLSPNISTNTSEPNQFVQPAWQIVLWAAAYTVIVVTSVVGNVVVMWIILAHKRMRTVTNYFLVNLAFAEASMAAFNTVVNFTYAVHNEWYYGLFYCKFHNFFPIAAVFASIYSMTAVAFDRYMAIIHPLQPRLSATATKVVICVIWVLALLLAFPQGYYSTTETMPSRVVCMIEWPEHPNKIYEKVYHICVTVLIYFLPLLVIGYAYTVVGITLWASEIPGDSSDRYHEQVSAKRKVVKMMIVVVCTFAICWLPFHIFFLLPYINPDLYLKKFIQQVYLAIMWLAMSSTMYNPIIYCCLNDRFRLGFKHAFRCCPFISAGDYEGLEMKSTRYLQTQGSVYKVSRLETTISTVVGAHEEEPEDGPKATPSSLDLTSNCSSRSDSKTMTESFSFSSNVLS

Compound	pEC50 [1]	hNK1R, IP3 Efficacy [1]	pEC50 [2]	hNK2R, IP3 Efficacy [2]	hNK3, IP3 Efficacy [3]	pEC50 [3]	hNK2R receptor activation, in words [2]
CCCC[C@H](NC(=O)[C@H](CC(C)C)NC(=O)C(C)(C)NC(=O)[C@@H](NC(=O)[C@H](Cc1ccccc1)NC(=O)[C@H](CCCCN)NC(=O)[C@H](CC(=O)O)NC(=O)COCCOCCNC(=O)COCCOCCNC(=O)CC[C@H](NC(=O)CCCCCCCCCCCCCCCCC(=O)O)C(=O)O)C(C)C)C(N)=O [compound 373, *Asp;Lys;Phe;Val;Aib;Leu;Nle;NH2] ({C18 diacid-γGlu-AEEA-AEEA}-DKFV[Aib]L[Nle]-NH2)	~6.87	66%	8.37	89%	0%		
CSCC[C@H](NC(=O)[C@H](CC(C)C)N(C)C(=O)CNC(=O)[C@@H](NC(=O)[C@H](Cc1ccccc1)NC(=O)[C@H](CCCCNC(=O)COCCOCCNC(=O)COCCOCCNC(=O)CC[C@H](NC(=O)CCCCCCCCCCCCCCCCC(=O)O)C(=O)O)NC(=O)[C@H](CC(=O)O)NC(C)=O)C(C)C)C(N)=O [compound 301, **Asp;Lys*;Phe;Val;Gly;NmLeu;Met;NH2]	~5.82	64%	7.42	63%	85%	6.80	
CCCC[C@H](NC(=O)[C@H](CC(C)C)N(C)C(=O)CNC(=O)[C@@H](NC(=O)[C@H](Cc1ccccc1)NC(=O)[C@H](CCCCN)NC(=O)[C@@H](N)CC(=O)O)C(C)C)C(N)=O [compound 375, Asp;Lys;Phe;Val;Gly;NmLeu;Nle;NH2]	7.92	110%	9.30	100%	35%	~4.30	
CCCC[C@H](NC(=O)[C@H](CC(C)C)NC(=O)CNC(=O)[C@@H](NC(=O)[C@H](Cc1ccccc1)NC(=O)[C@H](CCCCN)NC(=O)[C@H](CC(=O)O)NC(=O)COCCOCCNC(=O)COCCOCCNC(=O)CC[C@H](NC(=O)CCCCCCCCCCCCCCCCC(=O)O)C(=O)O)C(C)C)C(N)=O [compound 389, *Asp;Lys;Phe;Val;Gly;Leu;Nle;NH2]	7.80 and 7.82	108% and 100%	8.55 and 8.54	83% and 80%	100% and 60%	7.46	
CCCC[C@H](NC(=O)[C@H](CC(C)C)N(C)C(=O)CNC(=O)[C@@H](NC(=O)[C@H](Cc1ccccc1)NC(=O)[C@H](CCCCNC(=O)COCCOCCNC(=O)COCCOCCNC(=O)CC[C@H](NC(=O)CCCCCCCCCCCCCCCCC(=O)O)C(=O)O)NC(=O)[C@@H](N)CC(=O)O)C(C)C)C(N)=O [compound 307, Asp;Lys*;Phe;Val;Gly;NmLeu;Nle;NH2]		64%	7.62	80%	85%	~4.92	
COCC[C@H](NC(=O)[C@H](CC(C)C)N(C)C(=O)CNC(=O)[C@@H](NC(=O)[C@H](Cc1ccc(O)cc1)NC(=O)[C@H](CCCCN)NC(=O)[C@H](CCC(=O)O)NC(=O)COCCOCCNC(=O)COCCOCCNC(=O)CC[C@H](NC(=O)CCCCCCCCCCCCCCCCC(=O)O)C(=O)O)[C@@H](C)O)C(N)=O [compound 381, *Glu;Lys;Tyr;Thr;Gly;NmLeu;Metox;NH2] ({C18 diacid-γGlu-AEEA-AEEA}-EKYTG[NMeL][hSer](Me)-NH2)		0%	8.03	85%	0%		
CCCC[C@H](NC(=O)[C@H](CC(C)C)N(C)C(=O)CNC(=O)[C@@H](NC(=O)[C@H](Cc1ccccc1)NC(=O)[C@H](CCCNC(=N)N)NC(=O)[C@H](CCC(=O)O)NC(=O)COCCOCCNC(=O)COCCOCCNC(=O)CC[C@H](NC(=O)CCCCCCCCCCCCCCCCC(=O)O)C(=O)O)C(C)C)C(N)=O [compound 337, *Glu;Arg;Phe;Val;Gly;NmLeu;Nle;NH2] ({C18 diacid-γGlu-AEEA-AEEA}-ERFVG[NMeL][Nle]-NH2)	7.64	70%	8.40 and 8.89	80%	100%	7.37	

Continued, values first:

pEC50 [1]	hNK1R, IP3 Efficacy [1]	pEC50 [2]	hNK2R, IP3 Efficacy [2]	hNK3, IP3 Efficacy [3]	pEC50 [3]	hNK2R receptor activation, in words [2]	Compound
~4.51	20%	8.25	75%	0%			CCCC[C@H](NC(=O)[C@H](CC(C)C)N(C)C(=O)CNC(=O)[C@@H](NC(=O)[C@H](Cc1ccc(O)cc1)NC(=O)[C@H](CCCCN)NC(=O)[C@H](CC(=O)O)NC(=O)COCCOCCNC(=O)COCCOCCNC(=O)CC[C@H](NC(=O)CCCCCCCCCCCCCCC(=O)O)C(=O)O)C(C)C)C(N)=O [compound 367, *Asp;Lys;Tyr;Val;Gly;NmLeu;Nle;NH2] ({C16 diacid-γGlu-AEEA-AEEA}-DKYVG[NMeL][Nle]-NH2)
7.44	70% and 72%	8.80	80%	100%	6.95		CCCC[C@H](NC(=O)[C@H](CC(C)C)N(C)C(=O)CNC(=O)[C@@H](NC(=O)[C@H](Cc1ccccc1)NC(=O)[C@H](CCCCN)NC(=O)[C@H](CCC(=O)O)NC(=O)COCCOCCNC(=O)COCCOCCNC(=O)CC[C@H](NC(=O)CCCCCCCCCCCCCCCCC(=O)O)C(=O)O)C(C)C)C(N)=O [compound 335, *Glu;Lys;Phe;Val;Gly;NmLeu;Nle;NH2] ({C18 diacid-γGlu-AEEA-AEEA}-EKFVG[NMeL][Nle]-NH2)
6.70	70%	8.64	100%	60%	~4.33		CCCC[C@H](NC(=O)[C@H](CC(C)C)N(C)C(=O)CNC(=O)[C@@H](NC(=O)[C@H](Cc1cccc(O)c1)NC(=O)[C@H](CCCCN)NC(=O)[C@H](CC(=O)O)NC(=O)COCCOCCNC(=O)COCCOCCNC(=O)CC[C@H](NC(=O)CCCCCCCCCCCCCCCCC(=O)O)C(=O)O)C(C)C)C(N)=O [compound 361, *Asp;Lys;3-OH-Phe;Val;Gly;NmLeu;Nle;NH2] ({C18 diacid-γGlu-AEEA-AEEA}-DK[mTyr]VG[NMeL][Nle]-NH2)
~6.77	40%		0%	0%		completely destroys NK2R activation	CCCC[C@H](NC(=O)[C@H](CC(C)C)N(C)C(=O)CNC(=O)[C@@H](NC(=O)[C@H](Cc1ccc(I)cc1)NC(=O)[C@H](CCCCN)NC(=O)[C@H](CC(=O)O)NC(=O)COCCOCCNC(=O)COCCOCCNC(=O)CC[C@H](NC(=O)CCCCCCCCCCCCCCCCC(=O)O)C(=O)O)C(C)C)C(N)=O [compound 330, *Asp;Lys;4-I-Phe;Val;Gly;NmLeu;Nle;NH2]
	20%	8.00	90%	0%			COc1ccc(C[C@H](NC(=O)[C@H](CC(C)C)N(C)C(=O)CNC(=O)[C@@H](NC(=O)[C@H](Cc2ccccc2)NC(=O)[C@H](CCCCN)NC(=O)[C@H](CC(=O)O)NC(=O)COCCOCCNC(=O)COCCOCCNC(=O)CC[C@H](NC(=O)CCCCCCCCCCCCCCCCC(=O)O)C(=O)O)C(C)C)C(N)=O)cc1 [compound 370, *Asp;Lys;Phe;Val;Gly;NmLeu;4-MeOPhe;NH2] ({C18 diacid-γGlu-AEEA-AEEA}-DKFVG[NMeL]Y(Me)-NH2)
